Here are results for two molecules from ChEMBL document CHEMBL5500347, “An update on antibacterial AlkylGuanidino Ureas: Design of new derivatives, synergism with colistin and data analysis of the whole library” (2024).

Assay [1] relates to Staphylococcus aureus. In words: Antibacterial activity against Staphylococcus aureus ATCC 25923 at 256 ug/ml incubated for 18 to 24 hrs by CLSI based microdilution broth method. The class given is functional, organism-based. To be noted: dose 256.0 µg/ml, time 18-24 hrs. For orientation: Dilution methods test growth across graded concentrations, often in twofold steps.
Assay [2] concerns Streptococcus pyogenes. In words: Antibacterial activity against Streptococcus pyogenes ATCC 12344 at 256 ug/ml incubated for 18 to 24 hrs by CLSI based microdilution broth method. The class given is functional, organism-based. To be noted: dose 256.0 µg/ml, time 18-24 hrs.
The subject of assay [3] is Enterococcus faecalis. Description: Antibacterial activity against Enterococcus faecalis ATCC 19433 at 256 ug/ml incubated for 18 to 24 hrs by CLSI based microdilution broth method. The class given is functional, organism-based. To be noted: dose 256.0 µg/ml, time 18-24 hrs.
The test system of assay [4] is Bacillus subtilis. In words: Antibacterial activity against Bacillus subtilis ATCC 6633 at 256 ug/ml incubated for 18 to 24 hrs by CLSI based microdilution broth method. As to conditions: dose 256.0 µg/ml, time 18-24 hrs. The class given is functional, organism-based.
In assay [5] the test system is Pseudomonas aeruginosa. Description: Antibacterial activity against Pseudomonas aeruginosa ATCC 27853 at 256 ug/ml incubated for 18 to 24 hrs by CLSI based microdilution broth method. As to conditions: dose 256.0 µg/ml, time 18-24 hrs. The class given is functional, organism-based.
The test system of assay [6] is Klebsiella pneumoniae. Description: Antibacterial activity against Klebsiella pneumoniae ATCC 13833 at 256 ug/ml incubated for 18 to 24 hrs by CLSI based microdilution broth method. The class given is functional, organism-based. As to conditions: dose 256.0 µg/ml, time 18-24 hrs.
The test system of assay [7] is Escherichia coli. Description: Antibacterial activity against Escherichia coli CCUGT at 256 ug/ml incubated for 18 to 24 hrs by CLSI based microdilution broth method. The class given is functional, organism-based. To be noted: dose 256.0 µg/ml, time 18-24 hrs.
Assay [8] relates to Acinetobacter baumannii. Description: Antibacterial activity against Acinetobacter baumannii ATCC 17978 at 256 ug/ml incubated for 18 to 24 hrs by CLSI based microdilution broth method. The class given is functional, organism-based. As to conditions: dose 256.0 µg/ml, time 18-24 hrs.
Assay [9] deals with Enterococcus faecalis. Description: Antibacterial activity against Enterococcus faecalis ATCC 19433 incubated for 18 to 24 hrs by CLSI based microdilution broth method. The class given is functional. To be noted: time 18-24 hrs.
In assay [10] the test system is Acinetobacter baumannii. In words: Synergistic antibacterial activity against Acinetobacter baumannii ATCC 17978 assessed as potentiation fold by measuring MIC to MAC ratio incubated for 18 to 24 hrs in presence of colistin by CLSI based microdilution broth method. The class given is functional. As to conditions: time 18-24 hrs.
Assay [11] relates to Escherichia coli. In words: Synergistic antibacterial activity against Escherichia coli CCUGT incubated for 18 to 24 hrs in presence of colistin by CLSI based microdilution broth method. The class given is functional. As to conditions: time 18-24 hrs.
For assay [12], the system named is Acinetobacter baumannii. In words: Antibacterial activity against Acinetobacter baumannii ATCC 17978 incubated for 18 to 24 hrs by CLSI based microdilution broth method. The class given is functional. To be noted: Acinetobacter baumannii, ATCC 17978; time 18-24 hrs.
The test system of assay [13] is Staphylococcus aureus. Description: Antibacterial activity against Staphylococcus aureus ATCC 25923 incubated for 18 to 24 hrs by CLSI based microdilution broth method. The class given is functional. To be noted: time 18-24 hrs.
Assay [14] relates to Escherichia coli. In words: Antibacterial activity against Escherichia coli CCUGT incubated for 18 to 24 hrs by CLSI based microdilution broth method. The class given is functional. To be noted: Escherichia coli, CCUGT; time 18-24 hrs; read-out: MIC.
Assay [15] deals with Bacillus subtilis. Description: Antibacterial activity against Bacillus subtilis ATCC 6633 incubated for 18 to 24 hrs by CLSI based microdilution broth method. The class given is functional. As to conditions: time 18-24 hrs.
The test system of assay [16] is Escherichia coli. Description: Synergistic antibacterial activity against Escherichia coli CCUGT assessed as potentiation fold by measuring MIC to MAC ratio incubated for 18 to 24 hrs in presence of colistin by CLSI based microdilution broth method. The class given is functional. To be noted: time 18-24 hrs.
In assay [17] the test system is Klebsiella pneumoniae. Description: Synergistic antibacterial activity against Klebsiella pneumoniae ATCC 13833 assessed as potentiation fold by measuring MIC to MAC ratio incubated for 18 to 24 hrs in presence of colistin by CLSI based microdilution broth method. The class given is functional. As to conditions: time 18-24 hrs.
In assay [18] the test system is Streptococcus pyogenes. Description: Antibacterial activity against Streptococcus pyogenes ATCC 12344 incubated for 18 to 24 hrs by CLSI based microdilution broth method. The class given is functional. As to conditions: time 18-24 hrs.
The test system of assay [19] is Pseudomonas aeruginosa. In words: Synergistic antibacterial activity against Pseudomonas aeruginosa ATCC 27853 incubated for 18 to 24 hrs in presence of colistin by CLSI based microdilution broth method. The class given is functional. To be noted: time 18-24 hrs.
For assay [20], the system named is Klebsiella pneumoniae. Description: Synergistic antibacterial activity against Klebsiella pneumoniae ATCC 13833 incubated for 18 to 24 hrs in presence of colistin by CLSI based microdilution broth method. The class given is functional. To be noted: time 18-24 hrs.
Assay [21] concerns Acinetobacter baumannii. Description: Synergistic antibacterial activity against Acinetobacter baumannii N50 assessed as potentiation fold by measuring MIC to MAC ratio incubated for 18 to 24 hrs in presence of colistin by CLSI based microdilution broth method. The class given is functional. To be noted: time 18-24 hrs.
For assay [22], the system named is Acinetobacter baumannii. Description: Synergistic antibacterial activity against Acinetobacter baumannii N50 incubated for 18 to 24 hrs in presence of colistin by CLSI based microdilution broth method. The class given is functional. To be noted: time 18-24 hrs.
Assay [23] has as its system Pseudomonas aeruginosa. Description: Antibacterial activity against Pseudomonas aeruginosa ATCC 27853 incubated for 18 to 24 hrs by CLSI based microdilution broth method. The class given is functional. As to conditions: Pseudomonas aeruginosa, ATCC 27853; time 18-24 hrs.
The test system of assay [24] is Acinetobacter baumannii. In words: Antibacterial activity against Acinetobacter baumannii N50 incubated for 18 to 24 hrs by CLSI based microdilution broth method. The class given is functional. As to conditions: time 18-24 hrs.
In assay [25] the test system is Klebsiella pneumoniae. In words: Antibacterial activity against Klebsiella pneumoniae ATCC 13833 incubated for 18 to 24 hrs by CLSI based microdilution broth method. The class given is functional. As to conditions: Klebsiella pneumoniae, ATCC 13833; time 18-24 hrs; read-out: MIC.
Assay [26] deals with Pseudomonas aeruginosa. In words: Synergistic antibacterial activity against Pseudomonas aeruginosa ATCC 27853 assessed as potentiation fold by measuring MIC to MAC ratio incubated for 18 to 24 hrs in presence of colistin by CLSI based microdilution broth method. The class given is functional. To be noted: time 18-24 hrs.
Assay [27] deals with Acinetobacter baumannii. In words: Synergistic antibacterial activity against Acinetobacter baumannii ATCC 17978 incubated for 18 to 24 hrs in presence of colistin by CLSI based microdilution broth method. The class given is functional. As to conditions: time 18-24 hrs.

Active and inactive are the calls of the source. The calls are words filed in the database; no cut-off is given here. Where only a bound is given, the exact number is not on record here.

In the case of `[N-]=[N+]=NCCCCCCCCN(CCCCCCCCNC(c1ccccc1)(c1ccccc1)c1ccccc1)C(=O)N(CCCCCCCCN=[N+]=[N-])CCCCCCCCNC(c1ccccc1)(c1ccccc1)c1ccccc1`, the outcome in assay [1], in assay [2], in assay [3], in [4], in assay [5] and in assay [6] was inactive. In addition, the outcome in assay [7] and in assay [8] was inactive.
`O=C(O)C(F)(F)F.[N-]=[N+]=NCCCCCCCCN(CCCCCCCCNC(=N)N)C(=O)N(CCCCCCCCN=[N+]=[N-])CCCCCCCCNC(=N)N`: the minimum inhibitory concentration (MIC) – broadly, the lowest concentration that inhibits growth of the organism – in assay [9] is 16 µg/mL; in [12], 64 µg/mL; in [13], 2 µg/mL; in assay [14], 32 µg/mL; in assay [15], 8 µg/mL; in assay [18], 8 µg/mL. Moreover, the figures for the MIC in assay [23], in assay [24] and in [25] were greater than 256 µg/mL, 32 µg/mL and 32 µg/mL, respectively. The Ratio is on record as 1 in assay [10]; 1 in assay [16]; 16 in [17]; 1 in [21]; greater than 16 in [26]. In addition, the MAC in assay [11] was 32 µg/mL; in [19], 16 µg/mL; in [20], 2 µg/mL; in assay [22], 32 µg/mL; in assay [27], 64 µg/mL.
